# According to patent US20250034125A1, “COMPOUNDS AND USES THEREOF” (JANSSEN PHARMACEUTICA NV, priority 2019, published 2025):
# Read-outs that look alike come from different tables or passages of the source.
# What was measured:
# SCD5 = target: T1, SCD5 (Homo sapiens, UniProt Q86SK9); experiment: Growth inhibition of yeast (ole1Δ) expressing human SCD5 as the sole desaturase; type: cell-based; conditions: read-out: SCD5 IC50
# T1 construct: host or cells: Saccharomyces cerevisiae ole1Δ strain (W303 pdr1Δ pdr3Δ background), plasmid pRS316, TDH3 promoter
# T1 sequence (Q86SK9 1-330): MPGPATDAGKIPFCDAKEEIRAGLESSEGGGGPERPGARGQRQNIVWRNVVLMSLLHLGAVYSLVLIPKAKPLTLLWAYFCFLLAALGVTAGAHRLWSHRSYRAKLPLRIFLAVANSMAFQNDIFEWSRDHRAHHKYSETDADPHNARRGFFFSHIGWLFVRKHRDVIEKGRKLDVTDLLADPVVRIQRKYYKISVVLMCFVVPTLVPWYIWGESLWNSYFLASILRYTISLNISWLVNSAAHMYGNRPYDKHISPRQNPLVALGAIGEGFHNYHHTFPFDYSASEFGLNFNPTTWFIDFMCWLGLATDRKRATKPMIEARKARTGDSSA
# SCD1 = target: T2, SCD1 (Homo sapiens, UniProt O00767); experiment: Growth inhibition of yeast (ole1Δ) expressing human SCD1 as the sole desaturase; type: cell-based; conditions: read-out: SCD1 IC50
# T2 construct: host or cells: Saccharomyces cerevisiae ole1Δ strain (W303 pdr1Δ pdr3Δ background), plasmid pRS316, TDH3 promoter
# T2 sequence (O00767 1-359): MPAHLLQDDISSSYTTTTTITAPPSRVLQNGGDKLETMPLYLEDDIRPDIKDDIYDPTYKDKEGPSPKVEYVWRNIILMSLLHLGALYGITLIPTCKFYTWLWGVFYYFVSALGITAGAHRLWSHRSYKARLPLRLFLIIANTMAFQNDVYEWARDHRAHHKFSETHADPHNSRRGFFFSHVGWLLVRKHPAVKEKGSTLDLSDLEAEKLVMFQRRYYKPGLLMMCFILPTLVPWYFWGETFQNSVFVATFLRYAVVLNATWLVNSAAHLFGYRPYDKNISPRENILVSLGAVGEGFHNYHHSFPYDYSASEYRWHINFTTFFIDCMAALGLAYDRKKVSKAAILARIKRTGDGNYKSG
# [1] = yeast strain with SCD5 plasmid, OD600 growth read at 40 h
# [2] = yeast strain with SCD1 plasmid, OD600 growth read at 40 h
SMILES,IC50 (SCD5; [1]) [nM],IC50 (SCD1; [2]) [nM],IC50 (SCD5) [nM],IC50 (SCD1) [nM]
"Cn1nc(NC(=O)N2CC[C@@H](Oc3cc(F)cc(F)c3)C2)ccc1=O [Compound 28, (3R)-3-(3,5-difluorophenoxy)-N-(1-methyl-6-oxo-1,6-dihydropyridazin-3-yl)pyrrolidine-1-carboxamide]",> 45000,8100,,
"Cn1nc(-c2nc(N3CCC(Cc4cc(F)cc(F)c4)CC3)no2)ccc1=O [Compound 115, 6-(3-(4-(3,5-difluorobenzyl)piperidin-1-yl)-1,2,4-oxadiazol-5-yl)-2-methylpyridazin-3(2H)-one]",10,450,,
"Cn1nc(-c2noc(N3CCC(Cc4ccc(F)c(F)c4)CC3)n2)ccc1=O [Compound 123, 6-(5-(4-(3,4-difluorobenzyl)piperidin-1-yl)-1,2,4-oxadiazol-3-yl)-2-methylpyridazin-3(2H)-one]",1400,4900,,
Cn1nc(OC(=O)N2CCC(Cc3cc(F)cc(F)c3)CC2)ccc1=O [Compound 109],4850,> 45000,,
"Cn1nc(NC(=O)N2CCC(=Cc3cc(F)cc(F)c3)CC2)ccc1=O [Compound 33, 4-(3,5-difluorobenzylidene)-N-(1-methyl-6-oxo-1,6-dihydropyridazin-3-yl)piperidine-1-carboxamide]",140,440,,
"COc1ccccc1OC1CCN(C(=O)Nc2ccc(=O)n(C)n2)CC1 [Compound 73, 4-(2-methoxyphenoxy)-N-(1-methyl-6-oxo-1,6-dihydropyridazin-3-yl)piperidine-1-carboxamide]",12500,31900,,
"Cn1nc(NC(=O)N2CC(Oc3cc(F)cc(F)c3)C2)ccc1=O [Compound 24, 3-(3,5-difluorophenoxy)-N-(1-methyl-6-oxo-1,6-dihydropyridazin-3-yl)azetidine-1-carboxamide]",2900,1100,,
"Cn1nc(NC(=O)N2CCC(NCc3ccccc3C(F)(F)F)CC2)ccc1=O [Compound 105, N-(1-methyl-6-oxo-1,6-dihydropyridazin-3-yl)-4-(2-(trifluoromethyl)benzylamino) piperidine-1-carboxamide]",> 45000,> 45000,,
"COC1(Cc2cccc(F)c2)CCN(C(=O)Nc2ccc(=O)n(C)n2)CC1 [Compound 48, 4-(3-fluorobenzyl)-4-methoxy —N-(1-methyl-6-oxo-1,6-dihydropyridazin-3-yl)piperidine-1-carboxamide]",> 45000,> 45000,,
"Cn1nc(NC(=O)N2CC[C@H](Oc3ccc(F)c(F)c3)C2)ccc1=O [Compound 29, (3S)-3-(3,4-difluorophenoxy)-N-(1-methyl-6-oxo-1,6-dihydropyridazin-3-yl)pyrrolidine-1-carboxamide]",2800,420,,
O=C(Cc1ccc(=O)[nH]n1)N1CCC(Cc2cccc(Cl)c2)CC1 [Compound 34],8200,> 45000,,
"Cn1nc(NC(=O)N2CCC(OCc3cccc(F)c3)CC2)ccc1=O [Compound 96, 4-(3-fluorobenzyloxy)-N-(1-methyl-6-oxo-1,6-dihydropyridazin-3-yl)piperidine-1-carboxamide]",26400,> 45000,,
"Cn1nc(NC(=O)N2CCC(Oc3cccc(C(F)(F)F)c3)CC2)ccc1=O [Compound 74, N-(1-methyl-6-oxo-1,6-dihydropyridazin-3-yl)-4-(3-(trifluoromethyl)phenoxy) piperidine-1-carboxamide]",40,20,,
"Cn1nc(NC(=O)N2CCC(Cc3cc(F)cc(Cl)c3)CC2)ccc1=O [Compound 55, 4-(3-chloro-5-fluorobenzyl)-N-(1-methyl-6-oxo-1,6-dihydropyridazin-3-yl)piperidine-1-carboxamide]",20,160,,

# More lines, now with the values ahead:
IC50 (SCD5; [1]) [nM],IC50 (SCD1; [2]) [nM],IC50 (SCD5) [nM],IC50 (SCD1) [nM],SMILES
> 45000,> 45000,,,"Cn1nc(NC(=O)N2CCC(NCc3cc(F)cc(F)c3)CC2)ccc1=O [Compound 104, 4-(3,5-difluorobenzylamino)-N-(1-methyl-6-oxo-1,6-dihydropyridazin-3-yl)piperidine-1-carboxamide]"
5010,9000,,,Cn1nc(OC(=O)N2CCC(Oc3cc(F)cc(F)c3)CC2)ccc1=O [Compound 108]
160,> 45000,,,"Cn1nc(-c2nnc(N3CCC(Cc4cccc(F)c4)CC3)o2)ccc1=O [Compound 119, 6-(5-(4-(3-fluorobenzyl)piperidin-1-yl)-1,3,4-oxadiazol-2-yl)-2-methylpyridazin-3(2H)-one]"
1190,1980,,,Cn1nc(NC(=O)N2CCC(Oc3ccc(F)c(F)c3)CC2)ccc1=O [Compound 80]
4800,9770,,,"Cn1nc(NC(=O)N2CCC(Oc3ccc(C(F)(F)F)cc3)CC2)ccc1=O [Compound 76, N-(1-methyl-6-oxo-1,6-dihydropyridazin-3-yl)-4-(4-(trifluoromethyl)phenoxy) piperidine-1-carboxamide]"
,,> 45000,> 45000,"Cn1nc(NC(=O)N2CCC(COc3cccc(F)c3)CC2)ccc1=O [Compound 101, 4-((3-fluorophenoxy)methyl)-N-(1-methyl-6-oxo-1,6-dihydropyridazin-3-yl)piperidine-1-carboxamide]"
150,420,,,Cn1nc(NC(=O)N2CCC(Oc3ccccc3Cl)CC2)ccc1=O [Compound 69]
7180,10300,,,"Cn1nc(NC(=O)N2CCC(Oc3cc(F)c(F)c(C#N)c3)CC2)ccc1=O [Compound 90, 4-(3-cyano-4,5-difluorophenoxy)-N-(1-methyl-6-oxo-1,6-dihydropyridazin-3-yl)piperidine-1-carboxamide]"
1400,2700,,,"Cn1cc(-c2noc(N3CCC(Cc4ccc(F)c(F)c4)CC3)n2)ccc1=O [Compound 20, 5-(5-(4-(3,4-difluorobenzyl)piperidin-1-yl)-1,2,4-oxadiazol-3-yl)-1-methylpyridin-2(1H)-one]"
26100,> 45000,,,"Cn1nc(NC(=O)N2CCC(OCc3ccccc3F)CC2)ccc1=O [Compound 97, 4-(2-fluorobenzyloxy)-N-(1-methyl-6-oxo-1,6-dihydropyridazin-3-yl)piperidine-1-carboxamide]"
2600,9200,,,"Cn1nc(NC(=O)N2CCC(Cc3cc(Cl)cc(C#N)c3)CC2)ccc1=O [Compound 57, 4-(3-chloro-5-cyanobenzyl)-N-(1-methyl-6-oxo-1,6-dihydropyridazin-3-yl)piperidine-1-carboxamide]"
330,2400,,,"Cn1nc(NC(=O)N2CCC(Cc3ccc(Cl)c(F)c3)CC2)ccc1=O [Compound 52, 4-(4-chloro-3-fluorobenzyl)-N-(1-methyl-6-oxo-1,6-dihydropyridazin-3-yl)piperidine-1-carboxamide]"
1150,4960,,,"CCn1nc(NC(=O)N2CCC(Cc3cc(F)cc(F)c3)CC2)ccc1=O [Compound 125, 4-(3,5-difluorobenzyl)-N-(1-ethyl-6-oxo-1,6-dihydropyridazin-3-yl)piperidine-1-carboxamide]"
10,10,,,"Cn1nc(NC(=O)N2CCC(Oc3cc(F)ccc3C(F)(F)F)CC2)ccc1=O [Compound 86, 4-(5-fluoro-2-(trifluoromethyl)phenoxy)-N-(1-methyl-6-oxo-1,6-dihydropyridazin-3-yl)piperidine-1-carboxamide]"
130,1180,,,Cn1nc(NC(=O)N2CCC(Cc3cc(F)ccc3F)CC2)ccc1=O [Compound 53]
